Experimental findings from patent US11420970B1 (NOVARTIS AG, priority 2019, dated 2022) are described below.

In assay [1] the test system is cellular H3K36me2 level in thyroid carcinoma cell line CGTH-W-1 (NSD2 E1099K). Nature of the assay: H3K36me2 cellular ELISA assay in CGTH-W-1 line. The assay is classed as cell-based. As to conditions: Homo sapiens, CGTH-W-1, 72 h, read-out: H3K36me2 ELISA in CGTH-W-1. An outline of the steps:
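CGTH-W-1 thyroid carcinoma cells (NSD2 E1099K gain-of-function) exposed to compound for 72 hours. Histone-bound plates probed for H3K36me2 and total H3 by chemiluminescent ELISA. Viability checked on a parallel plate with CellTiter-Glo.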
For orientation: In an ELISA, binding on a coated surface is turned into a signal by an enzyme label.

Assay [2] concerns cellular H3K36me2 level in multiple myeloma cell line KMS11 (t(4;14)+). The assay is described as follows: H3K36me2 cellular ELISA assay in KMS11-Par line. The assay is classed as cell-based. As to conditions: Homo sapiens, KMS-11, ELISA, read-out: H3K36me2 ELISA in KMS11-Par. The method, boiled down: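 KMS11 cells were seeded a day ahead at 1,250 per well in Opti-MEM with B-27/N2, then treated with compound for 72 h. Histones were acid-extracted with 0.4M HCl, and H3K36me2 and total H3 were read by chemiluminescent ELISA. Viability was checked with CellTiter-Glo on a parallel plate in maintenance media.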

Another assay concerns the target NSD2 [1-1365] (Homo sapiens (Human), UniProt O96028). Nature of the assay: LC-MS/MS-based NSD2 enzymatic assay (SAH production). It is filed as biochemical. The settings on record: read-out: NSD2 IC50. An outline of the steps: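 Full-length NSD2 [1-1365] (8 nM final) with 1 μM SAM and 400 nM mouse-liver nucleosome in Tris pH 8.0 buffer; inhibitor preincubated 20 min with enzyme/SAM before nucleosome addition. Reaction 90 min at room temperature, TFA-quenched; SAH quantified by LC-MS/MS against d4-SAH internal standard and SAH standard curve.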

[3] abbreviates: KMS11-Par line (t(4;14)+), 72 hours treatment.
[4] abbreviates: NSD2 biochemical activity, class symbols.

Molecules are shown by their SMILES. Where two headings read alike, the source gives them in different places.

NSD2 [1-1365], sequence (O96028 whole entry): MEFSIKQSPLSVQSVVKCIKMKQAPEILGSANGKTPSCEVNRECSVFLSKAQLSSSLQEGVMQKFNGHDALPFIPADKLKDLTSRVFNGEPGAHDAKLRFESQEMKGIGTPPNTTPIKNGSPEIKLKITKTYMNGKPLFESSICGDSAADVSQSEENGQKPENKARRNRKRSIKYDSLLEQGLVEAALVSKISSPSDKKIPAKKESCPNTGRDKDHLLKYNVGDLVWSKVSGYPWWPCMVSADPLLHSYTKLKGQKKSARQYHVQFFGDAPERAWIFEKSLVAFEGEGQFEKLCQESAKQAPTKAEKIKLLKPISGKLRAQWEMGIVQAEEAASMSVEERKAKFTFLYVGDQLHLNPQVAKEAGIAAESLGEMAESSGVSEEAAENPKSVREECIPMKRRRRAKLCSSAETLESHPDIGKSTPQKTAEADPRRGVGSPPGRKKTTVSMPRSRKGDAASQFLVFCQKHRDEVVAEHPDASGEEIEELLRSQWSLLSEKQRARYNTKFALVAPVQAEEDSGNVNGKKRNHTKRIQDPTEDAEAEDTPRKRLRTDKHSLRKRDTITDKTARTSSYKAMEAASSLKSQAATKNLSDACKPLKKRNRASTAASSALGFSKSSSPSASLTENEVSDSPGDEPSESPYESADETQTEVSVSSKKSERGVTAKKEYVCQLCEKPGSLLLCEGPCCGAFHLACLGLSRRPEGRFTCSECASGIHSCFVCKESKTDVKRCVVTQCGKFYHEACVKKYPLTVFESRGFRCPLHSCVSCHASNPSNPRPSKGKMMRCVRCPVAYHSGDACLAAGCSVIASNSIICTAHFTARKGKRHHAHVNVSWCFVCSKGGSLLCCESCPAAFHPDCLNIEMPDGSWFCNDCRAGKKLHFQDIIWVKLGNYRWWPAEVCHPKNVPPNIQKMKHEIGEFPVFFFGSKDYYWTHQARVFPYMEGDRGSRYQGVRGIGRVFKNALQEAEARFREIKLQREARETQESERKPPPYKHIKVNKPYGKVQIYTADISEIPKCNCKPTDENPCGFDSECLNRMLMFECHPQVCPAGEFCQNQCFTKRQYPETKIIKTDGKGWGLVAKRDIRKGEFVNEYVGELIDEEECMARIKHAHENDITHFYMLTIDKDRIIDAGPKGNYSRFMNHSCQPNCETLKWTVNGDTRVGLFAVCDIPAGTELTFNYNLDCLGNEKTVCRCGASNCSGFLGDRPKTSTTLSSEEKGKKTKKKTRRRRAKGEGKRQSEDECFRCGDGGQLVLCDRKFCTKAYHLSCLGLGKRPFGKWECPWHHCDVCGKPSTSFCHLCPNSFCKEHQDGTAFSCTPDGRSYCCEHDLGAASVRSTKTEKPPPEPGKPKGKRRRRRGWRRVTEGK

Turning to `Cc1cc([C@@]2(N)CCCN(c3cnc(-c4ccc(F)c(F)c4)cc3Cn3cnc4c(N)ncnc43)C2)no1` [Example 284, (R)-9-((5-(3-amino-3-(5-methylisoxazol-3-yl)piperidin-1-yl)-2-(3,4-difluorophenyl)pyridin-4-yl)methyl)-9H-purin-6-amine], the IC50 was 111 nM in assay [1]; 254 nM in assay [2] (KMS11-Par line, 72 hours); 1 to 10 nM on NSD2 [1-1365].

Turning to `Nc1ncnc2c1ncn2Cc1cc(-c2ccc(F)cn2)ncc1N1CCC[C@](N)(c2cccc(Cl)n2)C1` [Example 196, (R)-9-((5-(3-amino-3-(6-chloropyridin-2-yl)piperidin-1-yl)-5′-fluoro-[2,2′-bipyridin]-4-yl)methyl)-9H-purin-6-amine], the IC50 in assay [1] is 637 nM; in assay [2] (KMS11-Par line, 72 hours), 2690 nM; at NSD2 [1-1365], 10 to 1000 nM.

Regarding `COc1cc(F)ccc1-c1cc(Cn2cnc3c(N)ncnc32)c(N2CCC[C@](N)([C@@H](O)C(F)F)C2)cn1` [Example 174, (R)-1-((R)-3-amino-1-(4-((6-amino-9H-purin-9-yl)methyl)-6-(4-fluoro-2-methoxyphenyl)pyridin-3-yl)piperidin-3-yl)-2,2-difluoroethan-1-ol], the IC50 is 1160 nM in assay [1]; 10600 nM in assay [2] (KMS11-Par line, 72 hours); 10 to 1000 nM at NSD2 [1-1365].

On to `Nc1ncnc2c1ncn2Cc1cc(-c2cnc(O)c(F)c2)ncc1N1CCCC(N)(c2cccc(Cl)n2)C1` (stereo not drawn) [Example 244, 5-(3-amino-3-(6-chloropyridin-2-yl)piperidin-1-yl)-4-((6-amino-9H-purin-9-yl)methyl)-5′-fluoro-[2,3′-bipyridin]-6′-ol], for which the IC50 in assay [1] was 12500 nM; in assay [2] (KMS11-Par line, 72 hours) it was 33300 nM; on NSD2 [1-1365] it was 10 to 1000 nM.

On to `Nc1ncnc2c1ncn2Cc1cc(-c2cc(F)c(F)cc2F)ncc1N1CCC[C@](N)([C@@H](F)CO)C1` [Example 286, (R)-2-((R)-3-amino-1-(4-((6-amino-9H-purin-9-yl)methyl)-6-(2,4,5-trifluorophenyl)pyridin-3-yl)piperidin-3-yl)-2-fluoroethan-1-ol], for which the IC50 was 5.9 nM in assay [1]; 655 nM in assay [2] (KMS11-Par line, 72 hours); 1 to 10 nM at NSD2 [1-1365].

In the case of `Nc1ncnc2c1ncn2Cc1cc(-c2cc(F)c(F)cc2F)ncc1N1CCC[C@](N)([C@@H](O)C(F)F)C1` [Example 156, (R)-1-((R)-3-amino-1-(4-((6-amino-9H-purin-9-yl)methyl)-6-(2,4,5-trifluorophenyl)pyridin-3-yl)piperidin-3-yl)-2,2-difluoroethan-1-ol], the IC50 was 41 nM in assay [1], 574 nM in assay [2] (setting [3]) and 1 to 10 nM at NSD2 [1-1365] (setting [4]).

`Cc1cc(C(F)F)ccc1-c1cc(Cn2cnc3c(N)ncnc32)c(N2CCC[C@](N)([C@@H](O)C(F)F)C2)cn1` [Example 115, (R)-1-((R)-3-amino-1-(4-((6-amino-9H-purin-9-yl)methyl)-6-(4-(difluoromethyl)-2-methylphenyl)pyridin-3-yl)piperidin-3-yl)-2,2-difluoroethan-1-ol]: the results for the IC50 (in assay [1]; in assay [2] (setting [3]); on NSD2 [1-1365] (setting [4])) were 88 nM, 927 nM and 1 to 10 nM, respectively.

Turning to `COc1ccc(-c2cc(Cn3cnc4c(N)ncnc43)c(N3CCC[C@](N)([C@@H](O)C(F)F)C3)cn2)c(C(F)F)c1` [Example 162, (R)-1-((R)-3-amino-1-(4-((6-amino-9H-purin-9-yl)methyl)-6-(2-(difluoromethyl)-4-methoxyphenyl)pyridin-3-yl)piperidin-3-yl)-2,2-difluoroethan-1-ol], the IC50 in assay [1] is 86 nM; in assay [2] (setting [3]), 440 nM; on NSD2 [1-1365] (setting [4]) it was 1 to 10 nM.

As for `COc1c(F)cc(-c2cc(Cn3cnc4c(N)ncnc43)c(N3CCC[C@](N)(c4cccc(Cl)n4)C3)cn2)cc1F` [Example 233, (R)-9-((5-(3-amino-3-(6-chloropyridin-2-yl)piperidin-1-yl)-2-(3,5-difluoro-4-methoxyphenyl)pyridin-4-yl)methyl)-9H-purin-6-amine], the IC50 in assay [1] was 341 nM; in assay [2] (KMS11-Par line, 72 hours), 1100 nM; on NSD2 [1-1365], 1 to 10 nM.

In the case of `Nc1ncnc2c1ncn2Cc1cc(-c2ccc(F)c(F)c2)ncc1N1CCC[C@](N)(c2cccc(Cl)n2)C1` [Example 200, (R)-9-((5-(3-amino-3-(6-chloropyridin-2-yl)piperidin-1-yl)-2-(3,4-difluorophenyl)pyridin-4-yl)methyl)-9H-purin-6-amine], the IC50 in assay [1] was 180 nM; in assay [2] (KMS11-Par line, 72 hours) it was 330 nM; on NSD2 [1-1365], 1 to 10 nM.

With `Nc1ncnc2c1ncn2Cc1cc(-c2ccc(F)c(F)c2)ncc1N1CCC[C@](N)(c2cccc(C(F)F)n2)C1` [Example 227, (R)-9-((5-(3-amino-3-(6-(difluoromethyl)pyridin-2-yl)piperidin-1-yl)-2-(3,4-difluorophenyl)pyridin-4-yl)methyl)-9H-purin-6-amine], the IC50 was 133 nM in assay [1]; 302 nM in assay [2] (KMS11-Par line, 72 hours); 10 to 1000 nM on NSD2 [1-1365].

Turning to `Nc1ncnc2c1ncn2Cc1cc(-c2cc(F)c(F)cc2F)ncc1N1CCC[C@](N)([C@H](O)C(F)F)C1` [Example 157, (S)-1-((R)-3-amino-1-(4-((6-amino-9H-purin-9-yl)methyl)-6-(2,4,5-trifluorophenyl)pyridin-3-yl)piperidin-3-yl)-2,2-difluoroethan-1-ol], the IC50 in assay [1] was 385 nM; in assay [2] (setting [3]) it was 1310 nM; at NSD2 [1-1365] (setting [4]), 1 to 10 nM.

As to `COc1cc(F)ccc1-c1cc(Cn2cnc3c(N)ncnc32)c(N2CCC[C@](N)([C@H](O)C(F)F)C2)cn1` [Example 173, (S)-1-((R)-3-amino-1-(4-((6-amino-9H-purin-9-yl)methyl)-6-(4-fluoro-2-methoxyphenyl)pyridin-3-yl)piperidin-3-yl)-2,2-difluoroethan-1-ol], the IC50 in assay [1] was 1040 nM; in assay [2] (KMS11-Par line, 72 hours), 12800 nM; at NSD2 [1-1365], 10 to 1000 nM.

Consider `COc1cc(F)nc([C@@]2(N)CCCN(c3cnc(-c4ccc(F)c(F)c4)cc3Cn3cnc4c(N)ncnc43)C2)c1` [Example 235, (R)-9-((5-(3-amino-3-(6-fluoro-4-methoxypyridin-2-yl)piperidin-1-yl)-2-(3,4-difluorophenyl)pyridin-4-yl)methyl)-9H-purin-6-amine], for which the IC50 in assay [1] is 705 nM; in assay [2] (KMS11-Par line, 72 hours), 970 nM; on NSD2 [1-1365], 1 to 10 nM.

For the compound `Nc1ncnc2c1ncn2Cc1cc(-c2cc(F)c(F)cc2C(F)F)ncc1N1CCC[C@](N)([C@H](O)C(F)F)C1` [Example 171, (S)-1-((R)-3-amino-1-(4-((6-amino-9H-purin-9-yl)methyl)-6-(2-(difluoromethyl)-4,5-difluorophenyl)pyridin-3-yl)piperidin-3-yl)-2,2-difluoroethan-1-ol], the IC50 in assay [1] is 886 nM; in assay [2] (KMS11-Par line, 72 hours), 5520 nM; at NSD2 [1-1365], 10 to 1000 nM.

Turning to `Nc1ncnc2c1ncn2Cc1cc(-c2ccc(OC(F)F)c(F)c2)ncc1N1CCC[C@](N)([C@@H](O)C(F)F)C1` [Example 119, (R)-1-((R)-3-amino-1-(4-((6-amino-9H-purin-9-yl)methyl)-6-(4-(difluoromethoxy)-3-fluorophenyl)pyridin-3-yl)piperidin-3-yl)-2,2-difluoroethan-1-ol], the values for the IC50 (in assay [1]; in assay [2] (setting [3]); on NSD2 [1-1365] (setting [4])) were 228 nM, 1490 nM and 1 to 10 nM, respectively.

Turning to `COc1ccc(-c2cc(Cn3cnc4c(N)ncnc43)c(N3CCC[C@](N)([C@H](O)C(F)F)C3)cn2)c(C(F)F)c1` [Example 163, (S)-1-((R)-3-amino-1-(4-((6-amino-9H-purin-9-yl)methyl)-6-(2-(difluoromethyl)-4-methoxyphenyl)pyridin-3-yl)piperidin-3-yl)-2,2-difluoroethan-1-ol], the IC50 was 204 nM in assay [1], 1850 nM in assay [2] (setting [3]) and 1 to 10 nM on NSD2 [1-1365] (setting [4]).

For `Nc1ncnc2c1ncn2Cc1cc(-c2ccc(F)c(F)c2)ncc1N1CCC[C@](N)(c2cccc(CF)n2)C1` [Example 226, (R)-9-((5-(3-amino-3-(6-(fluoromethyl)pyridin-2-yl)piperidin-1-yl)-2-(3,4-difluorophenyl)pyridin-4-yl)methyl)-9H-purin-6-amine], the IC50 in assay [1] is 66.8 nM; in assay [2] (KMS11-Par line, 72 hours), 169 nM; on NSD2 [1-1365] it was 1 to 10 nM.

For the compound `Nc1ncnc2c1ncn2Cc1cc(-c2cc(F)c(F)cc2F)ncc1N1CCC[C@](N)([C@@H]2COCCO2)C1` [Example 290, 9-((5-((R)-3-amino-3-((R)-1,4-dioxan-2-yl)piperidin-1-yl)-2-(2,4,5-trifluorophenyl)pyridin-4-yl)methyl)-9H-purin-6-amine], the IC50 in assay [1] was 421 nM; in assay [2] (KMS11-Par line, 72 hours) it was 954 nM; on NSD2 [1-1365], 10 to 1000 nM.

Regarding `Nc1ncnc2c1ncn2Cc1cc(-c2ccc(OC(F)F)cc2F)ncc1N1CCC[C@](N)([C@@H](O)C(F)F)C1` [Example 138, (R)-1-((R)-3-amino-1-(4-((6-amino-9H-purin-9-yl)methyl)-6-(4-(difluoromethoxy)-2-fluorophenyl)pyridin-3-yl)piperidin-3-yl)-2,2-difluoroethan-1-ol], the values for the IC50 (in assay [1]; in assay [2] (setting [3]); on NSD2 [1-1365] (setting [4])) were 132 nM, 1570 nM and 10 to 1000 nM, respectively.
